Measured values as given in patent US20240041991A1, “STABLE LIQUID DISPERSINB COMPOSITIONS” (KANE BIOTECH INC., priority 2020, published 2024).
Read-outs that look alike come from different tables or passages of the source. Marks after values point to notes of the source that are not given here.

Assays:
DispersinB [1] = assay type: biochemical, Aggregatibacter actinomycetemcomitans; details: 50 mM citrate buffer pH 5.9; salt concentration as in label; control with no salts = 100%
From the text: Activity of the control sample with no salts was considered 100%.

DispersinB [2] = details: pH 5.9; 50 mM Citrate; 100 mM NaCl pH 5.9 control = 100%
Description: DispersinB enzyme solutions (100 μg/ml) were prepared in 50 mM citrate buffer, containing 200 mM K2SO4. The pH was adjusted (5.4 to 5.9). DispersinB enzymatic activity was measured using β-N-Acetylglucosaminidase assay kit from Sigma (product code CS0780) in 96-well microtiter plate following the manufacturer's instructions. The data was represented as % enzymatic activity in comparison to enzyme activity of control sample that contained 100 μg/ml DispersinB in 50 mM citrate buffer (pH 5.9) containing 100 mM NaCl Activity of the control sample was considered 100%.

DispersinB [3] = test: Effect of buffer and pH on DispersinB enzymatic activity (β-N-Acetylglucosaminidase assay kit); assay type: biochemical, Aggregatibacter actinomycetemcomitans; details: buffer strength 100 mM, 100 mM NaCl, citrate pH 5.9 = 100%
Description: Lyophilized DispersinB powder was dissolved in selected buffers (citrate, phosphate) of defined pH (5.5 -7.5). The DispersinB concentration was adjusted to 100 μg/ml. Salt concentration was maintained at 100 mM sodium chloride. […] The enzymatic activity was presented as percentages in comparison to enzymatic activity of DispersinB in 100 mM Citrate buffer, 100 mM NaCl, pH 5.9, which was considered 100%.
Enzymatic activity in citrate buffer with a pH of 5.9 was considered 100%. * indicates statistically significant (p<0.05) values in paired two tailed t-test, each treatment was compared with enzymatic activity of DispersinB in corresponding buffer of pH 5.9.

DispersinB [4] = tested on: DispersinB
Description: DispersinB enzyme (100 μg/ml) solutions in 50 mM citrate buffer and phosphate buffer (pH 5.9), with 100 mM NaCl containing EDTA (0.5%-10%) were tested for DispersinB enzymatic activity following β-N-Acetylglucosaminidase assay.

DispersinB [5] = assay type: biochemical, Aggregatibacter actinomycetemcomitans; details: for % enzymatic activity of DispersinB (Mean): polyol % as in label
Description: Samples from each formula was incubated at 3 different temperatures (42° C., 52° C. and 62° C.) for 3 hours. Following a 3 hour incubation, the samples were brought to room temperature for enzymatic activity assay.
Two-tailed paired T-test was performed by to compare each polyol containing treatment with the treatment devoid of polyol. Treatment with probability values (p) less than 5% (0.05) was considered significant.

N.N.O=S(=O)(O)O [100 mM (NH4)2SO4, (NH4)2SO4]
% enzymatic activity of DispersinB (Mean) (DispersinB [1]): 91%

[Cl-].[K+] [100 mM KCl, KCl]
% enzymatic activity of DispersinB (Mean) (DispersinB [1]): 152* %

O=[N+]([O-])[O-].[K+] [100 mM KNO3, KNO3]
% enzymatic activity of DispersinB (Mean) (DispersinB [1]): 135* %

[Cl-].[Li+] [100 mM LiCl, LiCl]
% enzymatic activity of DispersinB (Mean) (DispersinB [1]): 97%

[Cl-].[Cl-].[Mg+2] [100 mM MgCl2, MgCl2]
% enzymatic activity of DispersinB (Mean) (DispersinB [1]): 81* %

O=S(=O)([O-])[O-].[Mg+2] [100 mM MgSO4, MgSO4]
% enzymatic activity of DispersinB (Mean) (DispersinB [1]): 87%

CC(=O)O.N [100 mM NH4 CH2COO, NH4 CH2COO]
% enzymatic activity of DispersinB (Mean) (DispersinB [1]): 66* %

Cl.N [100 mM NH4Cl, NH4Cl]
% enzymatic activity of DispersinB (Mean) (DispersinB [1]): 129* %

O=S(=O)([O-])[O-].[Na+].[Na+] [100 mM Na2SO4, Na2SO4]
% enzymatic activity of DispersinB (Mean) (DispersinB [1]): 174* %

[Cl-].[Na+] [100 mM NaCl, NaCl]
% enzymatic activity of DispersinB (Mean) (DispersinB [1]): 179* %
% Activity (DispersinB [2]): 100.00^b %

O=C(O)CC(O)(CC(=O)O)C(=O)O [Citrate]
% Enzyme activity (DispersinB [3]; pH 5.5): 72* %
% Enzyme activity (DispersinB [3]; pH 5.9): 100%
% Enzyme activity (DispersinB [3]; pH 6): 76* %
% Enzyme activity (DispersinB [3]; pH 6.5): 53* %
% Enzyme activity (DispersinB [3]; pH 7): 35* %
% Enzyme activity (DispersinB [3]; pH 7.5): 21* %

O=C(O)CN(CCN(CC(=O)O)CC(=O)O)CC(=O)O [EDTA, Ethylenediaminetetraacetic acid]
% Activity (DispersinB [4]; Citrate buffer pH 5.9, 100 mM NaCl, EDTA 0 mg/ml): 100.00%
% Activity (DispersinB [4]; Citrate buffer pH 5.9, 100 mM NaCl, EDTA 0.5 mg/ml): 101.45%
% Activity (DispersinB [4]; Citrate buffer pH 5.9, 100 mM NaCl, EDTA 1 mg/ml): 95.86%
% Activity (DispersinB [4]; Citrate buffer pH 5.9, 100 mM NaCl, EDTA 2.5 mg/ml): 104.19%
% Activity (DispersinB [4]; Citrate buffer pH 5.9, 100 mM NaCl, EDTA 9.4 mg/ml): 83.18%
% Activity (DispersinB [4]; Phosphate buffer pH 5.9, 100 mM NaCl, EDTA 0 mg/ml): 100.00%
% Activity (DispersinB [4]; Phosphate buffer pH 5.9, 100 mM NaCl, EDTA 0.5 mg/ml): 102.52%
% Activity (DispersinB [4]; Phosphate buffer pH 5.9, 100 mM NaCl, EDTA 1 mg/ml): 99.78%
% Activity (DispersinB [4]; Phosphate buffer pH 5.9, 100 mM NaCl, EDTA 2.5 mg/ml): 91.13%
% Activity (DispersinB [4]; Phosphate buffer pH 5.9, 100 mM NaCl, EDTA 9.4 mg/ml): 66.51%
concentrations of EDTA that tend to reduce the enzyme activity (DispersinB [4]; citrate buffer): greater than 2.5 mg/ml
concentrations of EDTA that tend to reduce the enzyme activity (DispersinB [4]; phosphate buffer): greater than 1 mg/ml

OC[C@@H](O)[C@H](O)[C@@H](O)CO [xylitol, Xylitol]
% enzymatic activity of DispersinB (Mean) (DispersinB [5]; 4° C., freshly made control without polyol = 100%, listed as 0.25% Xylitol): 98%
% enzymatic activity of DispersinB (Mean) (DispersinB [5]; 4° C., freshly made control without polyol = 100%, listed as 0.5% Xylitol): 106%
% enzymatic activity of DispersinB (Mean) (DispersinB [5]; 4° C., freshly made control without polyol = 100%, listed as 1% Xylitol): 97%
% enzymatic activity of DispersinB (Mean) (DispersinB [5]; 4° C., freshly made control without polyol = 100%, listed as 2% Xylitol): 117* %
% enzymatic activity of DispersinB (Mean) (DispersinB [5]; 4° C., freshly made control without polyol = 100%, listed as 4% Xylitol): 120* %
% enzymatic activity of DispersinB (Mean) (DispersinB [5]; 4° C., freshly made control without polyol = 100%, listed as 6% Xylitol): 115%
% enzymatic activity of DispersinB (Mean) (DispersinB [5]; 4° C., freshly made control without polyol = 100%, listed as 8% Xylitol): 118%
% enzymatic activity of DispersinB (Mean) (DispersinB [5]; 4° C., freshly made control without polyol = 100%, listed as 10% Xylitol): 107%
% enzymatic activity of DispersinB (Mean) (DispersinB [5]; 4° C., freshly made control without polyol = 100%, listed as 20% Xylitol): 91* %
% enzymatic activity of DispersinB (Mean) (DispersinB [5]; 4° C., freshly made control without polyol = 100%, listed as 30% Xylitol): 85* %
% enzymatic activity of DispersinB (Mean) (DispersinB [5]; 4° C., freshly made control without polyol = 100%, listed as 40% Xylitol): 86* %
% enzymatic activity of DispersinB (Mean) (DispersinB [5]; 42° C. for 3 hours, control without polyol = 100%, listed as 0.25% Xylitol): 90%
% enzymatic activity of DispersinB (Mean) (DispersinB [5]; 42° C. for 3 hours, control without polyol = 100%, listed as 0.5% Xylitol): 85%
% enzymatic activity of DispersinB (Mean) (DispersinB [5]; 42° C. for 3 hours, control without polyol = 100%, listed as 1% Xylitol): 88%
% enzymatic activity of DispersinB (Mean) (DispersinB [5]; 42° C. for 3 hours, control without polyol = 100%, listed as 2% Xylitol): 101* %
% enzymatic activity of DispersinB (Mean) (DispersinB [5]; 42° C. for 3 hours, control without polyol = 100%, listed as 4% Xylitol): 91%
% enzymatic activity of DispersinB (Mean) (DispersinB [5]; 42° C. for 3 hours, control without polyol = 100%, listed as 6% Xylitol): 97%
% enzymatic activity of DispersinB (Mean) (DispersinB [5]; 42° C. for 3 hours, control without polyol = 100%, listed as 8% Xylitol): 93%
% enzymatic activity of DispersinB (Mean) (DispersinB [5]; 42° C. for 3 hours, control without polyol = 100%, listed as 10% Xylitol): 86%
% enzymatic activity of DispersinB (Mean) (DispersinB [5]; 42° C. for 3 hours, control without polyol = 100%, listed as 20% Xylitol): 80%
% enzymatic activity of DispersinB (Mean) (DispersinB [5]; 42° C. for 3 hours, control without polyol = 100%, listed as 30% Xylitol): 71* %
% enzymatic activity of DispersinB (Mean) (DispersinB [5]; 42° C. for 3 hours, control without polyol = 100%, listed as 40% Xylitol): 72* %
% enzymatic activity of DispersinB (Mean) (DispersinB [5]; 52° C. for 3 hours, control without polyol = 100%, listed as 0.25% Xylitol): 6%
% enzymatic activity of DispersinB (Mean) (DispersinB [5]; 52° C. for 3 hours, control without polyol = 100%, listed as 0.5% Xylitol): 7%
% enzymatic activity of DispersinB (Mean) (DispersinB [5]; 52° C. for 3 hours, control without polyol = 100%, listed as 1% Xylitol): 9* %
% enzymatic activity of DispersinB (Mean) (DispersinB [5]; 52° C. for 3 hours, control without polyol = 100%, listed as 2% Xylitol): 17* %
% enzymatic activity of DispersinB (Mean) (DispersinB [5]; 52° C. for 3 hours, control without polyol = 100%, listed as 4% Xylitol): 26* %
% enzymatic activity of DispersinB (Mean) (DispersinB [5]; 52° C. for 3 hours, control without polyol = 100%, listed as 6% Xylitol): 43* %
% enzymatic activity of DispersinB (Mean) (DispersinB [5]; 52° C. for 3 hours, control without polyol = 100%, listed as 8% Xylitol): 53* %
% enzymatic activity of DispersinB (Mean) (DispersinB [5]; 52° C. for 3 hours, control without polyol = 100%, listed as 10% Xylitol): 61* %
% enzymatic activity of DispersinB (Mean) (DispersinB [5]; 52° C. for 3 hours, control without polyol = 100%, listed as 20% Xylitol): 69* %
% enzymatic activity of DispersinB (Mean) (DispersinB [5]; 52° C. for 3 hours, control without polyol = 100%, listed as 30% Xylitol): 70* %
% enzymatic activity of DispersinB (Mean) (DispersinB [5]; 52° C. for 3 hours, control without polyol = 100%, listed as 40% Xylitol): 68* %
% enzymatic activity of DispersinB (Mean) (DispersinB [5]; 62° C. for 3 hours, control without polyol = 100%, listed as 8% Xylitol): 1* %
% enzymatic activity of DispersinB (Mean) (DispersinB [5]; 62° C. for 3 hours, control without polyol = 100%, listed as 10% Xylitol): 2* %
% enzymatic activity of DispersinB (Mean) (DispersinB [5]; 62° C. for 3 hours, control without polyol = 100%, listed as 20% Xylitol): 2* %
% enzymatic activity of DispersinB (Mean) (DispersinB [5]; 62° C. for 3 hours, control without polyol = 100%, listed as 30% Xylitol): 3* %
% enzymatic activity of DispersinB (Mean) (DispersinB [5]; 62° C. for 3 hours, control without polyol = 100%, listed as 40% Xylitol): 42* %

Phosphate
% Enzyme activity (DispersinB [3]; pH 5.5): 80* %
% Enzyme activity (DispersinB [3]; pH 5.9): 100%
% Enzyme activity (DispersinB [3]; pH 6): 81* %
% Enzyme activity (DispersinB [3]; pH 6.5): 50* %
% Enzyme activity (DispersinB [3]; pH 7): 24* %
% Enzyme activity (DispersinB [3]; pH 7.5): 12* %

Propylene glycol
% enzymatic activity of DispersinB (Mean) (DispersinB [5]; 4° C., freshly made control without polyol = 100%, listed as Prop. Glycol 2.5%): 119* %
% enzymatic activity of DispersinB (Mean) (DispersinB [5]; 4° C., freshly made control without polyol = 100%, listed as Prop. Glycol 5%): 114* %
% enzymatic activity of DispersinB (Mean) (DispersinB [5]; 4° C., freshly made control without polyol = 100%, listed as Prop. Glycol 10%): 117* %
% enzymatic activity of DispersinB (Mean) (DispersinB [5]; 4° C., freshly made control without polyol = 100%, listed as Prop. Glycol 20%): 124* %
% enzymatic activity of DispersinB (Mean) (DispersinB [5]; 4° C., freshly made control without polyol = 100%, listed as Prop. Glycol 30%): 106%
% enzymatic activity of DispersinB (Mean) (DispersinB [5]; 42° C. for 3 hours, control without polyol = 100%, listed as Prop. Glycol 2.5%): 109* %
% enzymatic activity of DispersinB (Mean) (DispersinB [5]; 42° C. for 3 hours, control without polyol = 100%, listed as Prop. Glycol 5%): 93* %
% enzymatic activity of DispersinB (Mean) (DispersinB [5]; 42° C. for 3 hours, control without polyol = 100%, listed as Prop. Glycol 10%): 95* %
% enzymatic activity of DispersinB (Mean) (DispersinB [5]; 42° C. for 3 hours, control without polyol = 100%, listed as Prop. Glycol 20%): 46* %
temperature stabilizing effect on DispersinB at elevated temperatures (DispersinB [5]; 42° C., 52° C., and 62° C.): did not exhibit temperature stabilizing effects
